Laboratory results published in PMC11089204 (Frontiers in Pharmacology, 2024).

Experiments:
recombinant CYP1A2 = molecular target: T1, recombinant CYP1A2 (Homo sapiens, UniProt P05177); test: Incubation with recombinant CYP1A2 enzymes; type: in vitro ADME; settings: 1,000 nM psilocin, rec. CYP1A2
T1 construct: purchased Corning Life Sciences B.V
Experimental: (§1) Corning UltraPool human liver microsomes (HLM) 150 (20 mg/mL), human intestinal microsomes (HIM) pool (10 mg/mL) as well as recombinant human CYP enzymes (with P450 oxidoreductase, OR) including CYP1A2+OR (0.5 nmol), CYP2B6+OR (0.5 nmol), CYP2C8+OR (1.0 nmol), CYP2C9*1+OR (1 nmol), CYP2C19+OR (0.5 nmol), CYP2D6*1+OR (0.5 nmol), CYP2E1+OR + cytochrome b5 (1 nmol), CYP3A4+OR + cytochrome b5 (0.5 nmol), MAO-A (5 mg/mL), MAO-B (5 mg/mL), and UGT1A10 (5 mg/mL) were purchased from Corning Life Sciences B.V (Amsterdam, Netherlands). All microsomes and recombinant enzyme solutions were aliquoted and stored at −80 °C until further use.
(§2) The total volume of the reaction mixture was 500 μL. […] Samples were either directly analyzed by liquid chromatography tandem mass spectrometry (LC-MS/MS) or briefly stored at −20°C until analysis.

recombinant CYP2C8 = molecular target: T2, recombinant CYP2C8 (Homo sapiens, UniProt P10632); test: Incubation with recombinant CYP2C8 enzymes; type: in vitro ADME; settings: 1,000 nM psilocin, rec. CYP2C8
T2 construct: purchased Corning Life Sciences B.V
Experimental: as §1, §2

recombinant CYP2C9 = molecular target: T3, recombinant CYP2C9 (Homo sapiens, UniProt P11712); test: Incubation with recombinant CYP2C9 enzymes; type: in vitro ADME; settings: 1,000 nM psilocin, rec. CYP2C9
T3 construct: purchased Corning Life Sciences B.V
Experimental: as §1, §2

recombinant CYP2C19 = molecular target: T4, recombinant CYP2C19 (Homo sapiens, UniProt P33261); test: Incubation with recombinant CYP2C19 enzymes; type: in vitro ADME; settings: 1,000 nM psilocin, rec. CYP2C19
T4 construct: purchased Corning Life Sciences B.V
Experimental: as §1, §2

recombinant CYP2E1 = molecular target: T5, recombinant CYP2E1 (Homo sapiens, UniProt P05181); test: Incubation with recombinant CYP2E1 enzymes; type: in vitro ADME; settings: 1,000 nM psilocin, rec. CYP2E1
T5 construct: purchased Corning Life Sciences B.V
Experimental: as §1, §2

[1] = system: human liver microsomes (HLM); test: Glucuronidation with human liver microsomes; type: in vitro ADME; settings: 1,000 nM psilocin with HLM and UGT co-factors
Experimental: as §1, with “use. Co-factors including NADPH regenerating system solution A (25 mM NADP+, 66 mM glucose-6-phosphate, and 66 mM MgCl2 in water), NADPH regenerating system solution B (40 U/mL glucose-6-phosphate dehydrogenase in 5 mM sodium citrate), UGT reaction mix solution A (25 mM uridine 5′-diphospho-glucuronic acid in water), and UGT reaction mix solution B (250 mM Tris-HCl, 40 mM MgCl2, and 0.125 mg/mL alamethicin in water) were also obtained from Corning Life Sciences B.V.” for “use.”
The assay described in section 2.5.1 was adjusted to suit the glucuronidation system. […] HLM were diluted as described in section 2.5.1, while HIM or UGT1A10 enzymes were diluted 1:40 (end concentration […] and 0.125 mg/mL, respectively) in the reaction mix. […]

[2] = system: norepinephrine transporters (NET); set-up: method as in Rickli et al., 2016; settings: ref Rickli et al., 2016; cited from earlier work

T2 sequence (P10632 whole entry): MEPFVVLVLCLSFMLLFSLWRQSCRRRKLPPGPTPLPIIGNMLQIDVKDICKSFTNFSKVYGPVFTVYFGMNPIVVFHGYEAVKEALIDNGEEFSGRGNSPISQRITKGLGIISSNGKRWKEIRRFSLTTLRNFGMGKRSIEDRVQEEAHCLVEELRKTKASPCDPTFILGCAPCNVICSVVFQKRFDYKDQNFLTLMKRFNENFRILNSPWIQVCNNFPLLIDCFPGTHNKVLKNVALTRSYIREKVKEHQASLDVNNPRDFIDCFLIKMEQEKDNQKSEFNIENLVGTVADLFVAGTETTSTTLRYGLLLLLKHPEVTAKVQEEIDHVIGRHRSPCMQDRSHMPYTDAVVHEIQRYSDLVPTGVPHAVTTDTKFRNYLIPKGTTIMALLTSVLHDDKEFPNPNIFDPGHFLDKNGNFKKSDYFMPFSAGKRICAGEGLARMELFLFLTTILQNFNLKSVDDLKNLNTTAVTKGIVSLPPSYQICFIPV
T5 sequence (P05181 whole entry): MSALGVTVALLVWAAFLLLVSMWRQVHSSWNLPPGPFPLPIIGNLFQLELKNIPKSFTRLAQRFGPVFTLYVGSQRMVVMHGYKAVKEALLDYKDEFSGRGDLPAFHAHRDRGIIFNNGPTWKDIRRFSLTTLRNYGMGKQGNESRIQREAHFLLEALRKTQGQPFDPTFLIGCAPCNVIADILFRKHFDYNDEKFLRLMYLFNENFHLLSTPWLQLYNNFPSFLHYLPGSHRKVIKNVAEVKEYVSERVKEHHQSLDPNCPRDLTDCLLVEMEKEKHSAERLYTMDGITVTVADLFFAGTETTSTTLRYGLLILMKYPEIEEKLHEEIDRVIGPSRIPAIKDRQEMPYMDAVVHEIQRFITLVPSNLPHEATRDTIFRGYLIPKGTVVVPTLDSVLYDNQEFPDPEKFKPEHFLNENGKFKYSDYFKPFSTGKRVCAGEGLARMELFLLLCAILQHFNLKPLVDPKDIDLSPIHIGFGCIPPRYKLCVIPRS
T3 sequence (P11712 whole entry): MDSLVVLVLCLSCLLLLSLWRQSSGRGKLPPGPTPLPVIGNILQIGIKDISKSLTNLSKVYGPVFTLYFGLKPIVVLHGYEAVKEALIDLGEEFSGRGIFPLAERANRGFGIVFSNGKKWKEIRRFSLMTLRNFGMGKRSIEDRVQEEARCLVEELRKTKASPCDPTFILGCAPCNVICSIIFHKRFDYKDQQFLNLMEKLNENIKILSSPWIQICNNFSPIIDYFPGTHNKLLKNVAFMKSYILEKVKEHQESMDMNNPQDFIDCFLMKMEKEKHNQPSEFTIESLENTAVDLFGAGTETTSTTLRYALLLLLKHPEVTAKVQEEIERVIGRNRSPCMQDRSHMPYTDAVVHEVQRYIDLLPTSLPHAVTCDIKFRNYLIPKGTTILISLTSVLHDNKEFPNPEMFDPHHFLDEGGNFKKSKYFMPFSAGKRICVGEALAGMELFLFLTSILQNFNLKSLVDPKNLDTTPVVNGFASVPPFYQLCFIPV
T4 sequence (P33261 whole entry): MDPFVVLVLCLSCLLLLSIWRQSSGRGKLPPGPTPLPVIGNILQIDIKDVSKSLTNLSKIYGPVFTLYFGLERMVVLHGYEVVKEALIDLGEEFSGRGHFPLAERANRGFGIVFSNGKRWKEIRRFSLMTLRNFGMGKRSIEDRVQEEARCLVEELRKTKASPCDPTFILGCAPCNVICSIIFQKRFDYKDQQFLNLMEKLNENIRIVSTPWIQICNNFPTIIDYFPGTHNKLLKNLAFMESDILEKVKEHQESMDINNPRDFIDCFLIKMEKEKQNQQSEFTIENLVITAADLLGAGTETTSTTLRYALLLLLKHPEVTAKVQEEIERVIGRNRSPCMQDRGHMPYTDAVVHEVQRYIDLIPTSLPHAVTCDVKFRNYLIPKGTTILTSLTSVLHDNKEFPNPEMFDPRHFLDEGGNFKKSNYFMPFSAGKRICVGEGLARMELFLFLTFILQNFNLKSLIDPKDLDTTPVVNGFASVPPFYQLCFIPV
T1 sequence (P05177 2-516 limits assumed): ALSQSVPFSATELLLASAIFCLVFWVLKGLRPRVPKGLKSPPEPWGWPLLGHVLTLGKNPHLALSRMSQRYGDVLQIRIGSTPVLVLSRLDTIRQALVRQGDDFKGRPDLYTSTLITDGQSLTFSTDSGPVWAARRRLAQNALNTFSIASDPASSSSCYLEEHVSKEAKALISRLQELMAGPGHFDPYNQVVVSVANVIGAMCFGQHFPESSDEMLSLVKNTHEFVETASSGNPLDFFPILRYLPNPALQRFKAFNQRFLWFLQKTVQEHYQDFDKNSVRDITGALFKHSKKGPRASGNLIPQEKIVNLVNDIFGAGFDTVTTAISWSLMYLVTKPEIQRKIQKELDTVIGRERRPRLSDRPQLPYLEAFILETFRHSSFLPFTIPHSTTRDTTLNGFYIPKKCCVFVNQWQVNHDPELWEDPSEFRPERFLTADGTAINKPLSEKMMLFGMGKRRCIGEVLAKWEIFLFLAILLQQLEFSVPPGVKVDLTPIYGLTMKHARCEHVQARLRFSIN

CN(C)CCc1c[nH]c2cccc(O)c12 [psilocin, 4-hydroxy-N,N-dimethyltryptamine]
metabolism of psilocin (recombinant CYP1A2): did not metabolize
metabolism of psilocin (recombinant CYP2C8): did not metabolize
metabolism of psilocin (recombinant CYP2C9): did not metabolize
metabolism of psilocin (recombinant CYP2C19): did not metabolize
metabolism of psilocin (recombinant CYP2E1): did not metabolize
glucuronidation of psilocin [1]: No glucuronidation was observed
inhibition of NET [2]: not
